Each block holds one molecule with its values, some of them ahead of it.
Assays:
Format in all cases: cell-based
porcine coronary artery = assay: Papaverine effect on tension and on histamine/KCl contraction of porcine coronary artery rings
Procedure: Porcine coronary arteries were freshly isolated from euthanized pigs and placed directly into cold transplant harvest buffer (100 mM potassium lactobionate, 25 mM KH2PO4, 5 mM MgSO4, 30 mM Raffinose, 5 mM Adenosine, 3 mM Glutathione, 1 mM Allopurinol, 50 g/L Hydroxyethyl starch, pH 7.4). Coronary arteries were dissected free of fat and adventitial tissues and the endothelium was removed. Transverse rings (1.0 mm thickness) were cut and suspended in muscle bath, via silk 3-0 linked to force transducers (Kent Scientific, CT) interfaced with a Data Translation A-D board (Data Translation, MA). Data was acquired with the Power Lab software program. Porcine coronary artery rings were suspended in a muscle bath and equilibrated in Krebs Ringer bicarbonate buffer for 2 h. The rings were stretched and the length progressively adjusted until maximal tension was obtained. The rings were contracted with 110 mM KCl (with equimolar replacement of NaCl in bicarbonate buffer), and the force generated was measured and converted to stress [Newtons (N)/m^2]=force (g)×0.0987/area, where area is equal to the wet weight [mg/length (mm at maximal length)] divided by 1.055. Rings were washed and equilibrated for another 30 mins. Rings were treated with 5 μM histamine, 110 mM KCl, 1 mM papaverine (PAP), 1 mM papaverine for 10 min followed by 5 μM histamine or 1 mM papaverine for 10 min followed by 110 mM KCl and force generated was measured- and converted to stress. Representative force tracings of rings treated with 5 μM histamine (Hist), 110 mM KCl (KCl), 1 mM papaverine (PAP), 1 mM papaverine for 10 min followed by 5 μM histamine (Pap+Hist) or 1 mM papaverine for 10 min followed by 110 mM KCl (Pap+KCl) were depicted in FIG. 18A. Decrease in stress was converted to a percentage of the maximal initial KCl contraction which was set as 100%.

human saphenous vein [1] = assay: Papaverine effect on tension and on norepinephrine contraction of human saphenous vein rings
Procedure: De-identified discarded segments of human saphenous vein (n=6) were collected, after informed consent approved by the Institutional Review Board of the Vanderbilt University (Nashville, Tenn.), from patients undergoing coronary artery bypass or peripheral vascular bypass surgery. The veins were stored in a saline solution until the end of the surgical procedure at which time they were placed in cold transplant harvest buffer (100 mM potassium lactobionate, 25 mM KH2PO4, 5 mM MgSO4, 30 mM raffinose, 5 mM adenosine, 3 mM glutathione, 1 mM allopurinol, 50 g/L hydroxyethyl starch, pH 7.4). The vessels were tested within 24 hrs of harvest and storage in transplant harvest buffer at 4° C. Veins were cleaned off fat and adventitial tissues and the endothelium was removed. […] The rings were contracted with 110 mM KCl (with equimolar replacement of NaCl in bicarbonate buffer), and the force generated was measured and converted to stress [Newtons (N)/m^2]==force (g)×0.0987/area, where area is equal to the wet weight [mg/length (mm at maximal length)] divided by 1.055. […] Rings were treated with 0.5 μM norepinephrine (NE), 1 mM papaverine (Pap), or 1 mM papaverine for 10 min followed by 0.5 μM NE and force generated was measured and converted to stress. […]

porcine saphenous veins = conditions: pig, 15 min, 50 %
Procedure: Freshly isolated porcine saphenous veins were used to test the effect of different marking methods. The veins were collected and placed in cold transplant harvest buffer [100 mM potassium lactobionate, 25 mM KH2PO4, 5 mM MgSO4, 30 mM raffinose, 5 mM adenosine, 3 mM glutathione, 1 mM allopurinol, 50 g/L hydroxyethyl starch, pH 7.4]. The vessels were stored in transplant harvest buffer at 4° C. and tested within 24 hours of harvest and. To test the viability, rings 1.0 mm in width were cut from segments of saphenous vein and dissected free of fat and connective tissue. Saphenous vein rings were untreated (Control; n=6), marked with the surgical skin marker (n=3), or 50% isopropyl alcohol (the solvent used in the surgical marker; n=3) and incubated for 15 min at room temperature. The rings were then equilibrated in a muscle bath, contracted with KCl, and force was measured and converted to stress (10^5 N/m^2). […] (FIG. 7).

human saphenous vein [2] = conditions: 15 min, pH 7.4
Procedure: De-identified discarded segments of human saphenous vein were collected (n=66), after informed consent approved by the Institutional Review Board of the Vanderbilt University (Nashville, Tenn.), from patients undergoing coronary artery bypass or peripheral vascular bypass surgery. The veins were stored in a saline solution until the end of the surgical procedure at which time they were placed in cold transplant harvest buffer (100 mM potassium lactobionate, 25 mM KH2PO4, 5 mM MgSO4, 30 mM raffinose, 5 mM adenosine, 3 mM glutathione, 1 mM allopurinol, 50 g/L hydroxyethyl starch, pH 7.4) and stored at 4° C. The vessels were tested within 24 hours of harvest. The presense of blue markings were assessed for each HSV. Rings 1.0 mm in width were cut from segments of saphenous vein dissected free of fat and connective tissue, stripped of the endothelium and were suspended in a muscle bath containing a bicarbonate buffer (120 mM NaCl, 4.7 mM KCl, 1.0 mM MgSO4, 1.0 mM NaH2PO4, 10 mM glucose, 1.5 mM CaCl2, and 25 mM […], pH 7.4), gassed with 95% O2/5% CO2 at 37° C. The rings were manually stretched to 4 g of tension, and was maintained at a resting tension of 1 g was obtained and equilibrated for ˜2 hr. […] To determine viability, the rings were contracted with 110 mM KCl (with equimolar replacement of NaCl in bicarbonate buffer), and the force generated was measured. […]

porcine saphenous vein [3] = assay: KCl-induced contraction of porcine saphenous vein after stretch injury, with or without dye; conditions: 50 μM dye for 30 min on rings from stretched segments; FIG. 10
Procedure: Freshly isolated porcine saphenous vein was collected in cold transplant harvest buffer (100 mM potassium lactobionate, 25 mM KH2PO4, 5 mM MgSO4, 30 mM raffinose, 5 mM adenosine, 3 mM glutathione, 1 mM allopurinol, 50 g/L hydroxyethyl starch, pH 7.4). The vessels were tested within 24 hours of harvest and storage in transplant harvest buffer at 4° C. The vein was dissected free of fat and connective tissue and cut into 2 cm long segments. The segments were stretched to twice their resting length (stretched; n=7) or not manipulated (control; n=12). After stretching, the segments from both groups were further divided. A solution of erioglaucine (FCF, 2.6 mM, in 5% propylene glycol and water) or vehicle was then applied with a cotton swab in a longitudinal line to the untreated (FCF; n=8) or the stretched (Stretched+FCF; n=3) vein segments. The segments were incubated at room temperature for 15 min in Plasmalyte and then cut into rings. The rings were suspended in a muscle bath containing a bicarbonate buffer (120 mM NaCl, 4.7 mM KCl, 1.0 mM MgSO4, 1.0 mM NaH2PO4, 10 mM glucose, 1.5 mM CaCl2, and 25 mM […], pH 7.4), bubbled with 95% O2/5% CO2 at 37° C. The rings were manually stretched to 4 g of tension, and maintained at a resting tension of 1 g and equilibrated for ˜2 hr.
Rings from stretched segments were either incubated with 50 μM Allura Red (+Red) or 50 μM of erioglaucine (+FCF) for 30 min. The rings were then allowed to equilibrate in the bicarbonate buffer for before contracting with 110 mM KCl. Force generated was converted to stress (10^5 N/m^2). Data represent relative contractile response to Control rings which was set as 100%.

porcine saphenous vein [4] = assay: Intimal thickening of distended porcine saphenous vein rings in 14 day organ culture; conditions: 50 μM dye, 14 days culture, distended to >300 mm Hg, compared to Distended-Control; FIG. 14
Procedure: Fresh porcine saphenous vein was harvested by a no touch method under sterile conditions and stored in cold transplant harvest buffer (100 mM potassium lactobionate, 25 mM KH2PO4, 5 mM MgSO4, 30 mM Raffinose, 5 mM Adenosine, 3 mM Glutathione, 1 mM Allopurinol, 50 g/L Hydroxyethyl starch, pH 7.4). The vessels were used within 24 hr of harvest. The veins were divided into three segments that were left untreated (Unmanipulated, n=7), distended (Distended, n=8) to >300 mm Hg, or distended in the presence of the pressure relief valve (Pop Off, n=7). Each segment was then cut into ˜1 mm rings and one ring from each condition was immediately fixed in formalin (Pre-culture). The other rings were cultured in RPMI medium supplemented with 1% L-glutamine, penicillin/streptomycin and 30% Fetal bovine serum at 5% CO2 and 37° C. in the absence (Control) or presence of either 50 μM erioglaucine (FCF), 50 μM brilliant blue G (BBG) or 50 μM Allura Red (Red) for 14 days. After 14 days, the rings were fixed in formalin, sectioned at 5 μm and stained using Verhoff Van Gieson stain. Light micrograph of the rings was captured using a Axiovert 200 and intimal thickness was measured using AxioVision.

SMILES: COc1ccc(Cc2nccc3cc(OC)c(OC)cc23)cc1OC [papaverine]
- change of basal tension, percentage of the maximal initial KCl contraction (porcine coronary artery; 1 mM papaverine): −15.0±3.135%
- histamine induced contraction after papaverine, percentage of the maximal initial KCl contraction (porcine coronary artery; 1 mM papaverine 10 min then 5 μM histamine, histamine alone 98.613±11.049): −12.0±4.163%
- KCl induced contraction after papaverine, percentage of the maximal initial KCl contraction (porcine coronary artery; 1 mM papaverine 10 min then 110 mM KCl, KCl alone 103.33±2.404): −20.0±10.00%
- histamine and KCl induced contractions (in words) (porcine coronary artery; preincubation with papaverine, FIGS. 18A-B): inhibits histamine and KCl induced contractions
- norepinephrine induced contraction after papaverine, percentage of the maximal initial KCl contraction (human saphenous vein [1]; 1 mM papaverine 10 min then 0.5 μM NE, NE alone 89.935±18.344): −3.210±5.119%
- norepinephrine induced contractions (in words) (human saphenous vein [1]; preincubation with papaverine, FIGS. 19A-B): inhibits norepinephrine induced contractions

- average stress, contraction with KCl (porcine saphenous veins): 5 ± 5 N/m^2
- average stress, contraction with 110 mM KCl (human saphenous vein [2]): 0.005±0.003 10^5 N/m^2
SMILES: CC(C)O [50% isopropyl alcohol, isopropyl alcohol]

- average stress, contraction with 110 mM KCl (human saphenous vein [2]): 0.014±0.01 10^5 N/m^2
SMILES: CN(C)c1ccc2nc3ccc(=[N+](C)C)cc-3sc2c1 [methylene blue]

SMILES: COc1cc(S(=O)(=O)[O-])c(C)cc1N=Nc1c(O)ccc2cc(S(=O)(=O)[O-])ccc12.[Na+].[Na+] [Allura Red]
- restoration of functional viability (contractile response to KCl) after stretch injury (porcine saphenous vein [3]): did not restore functional viability
- distension induced increases in intimal thickening (porcine saphenous vein [4]): but not allura red inhibited distension induced increases in intimal thickening
